Measured values reported in ChEMBL document CHEMBL1134303, “Systematic structure-based design and stereoselective synthesis of novel multisubstituted cyclopentane derivatives with potent antiinfluenza activity” (J Med Chem, 2001).

Target: Neuraminidase (Influenza A virus (A/Puerto Rico/8/1934(H1N1)), UniProt P03468)
Assay: Inhibitory activity against influenza A neuraminidase

Neuraminidase (Influenza A virus (A/Puerto Rico/8/1934(H1N1)), UniProt P03468), sequence (P03468 whole entry): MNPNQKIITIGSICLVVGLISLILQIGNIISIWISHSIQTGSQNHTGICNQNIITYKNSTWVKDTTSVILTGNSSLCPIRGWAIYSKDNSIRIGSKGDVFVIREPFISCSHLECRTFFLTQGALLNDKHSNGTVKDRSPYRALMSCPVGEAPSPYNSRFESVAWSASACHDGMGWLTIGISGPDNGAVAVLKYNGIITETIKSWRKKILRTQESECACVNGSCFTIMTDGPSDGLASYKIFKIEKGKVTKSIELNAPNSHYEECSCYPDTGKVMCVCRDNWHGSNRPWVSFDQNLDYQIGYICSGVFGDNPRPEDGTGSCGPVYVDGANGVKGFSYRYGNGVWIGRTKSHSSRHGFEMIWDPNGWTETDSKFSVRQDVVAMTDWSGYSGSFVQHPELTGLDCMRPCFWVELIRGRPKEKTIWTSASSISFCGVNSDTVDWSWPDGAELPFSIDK

SMILES | IC50 [nM]
CCC(CC)[C@H](NC(C)=O)[C@@H]1C[C@@H](C(=O)O)C[C@H]1N=C(N)N | < 1
CCC(CC)[C@H](NC(C)=O)[C@@H]1[C@H](O)[C@@H](C(=O)O)C[C@H]1NC(=N)N [PERAMIVIR ANHYDROUS] | < 1
